Experimental data from patent US7972793B2, “Methods and compositions for the treatment of psychotic disorders through the identification of the SULT4A1-1 haplotype” (Suregene, LLC, priority 2009, dated 2011).
Where two headings read alike, the source gives them in different places.

How the values were obtained:
[1] = tested on: CATIE Caucasian schizophrenia patients; assay: CATIE Phase 1 drug response: change in total PANSS (LOCF), drug switchers, segmented by SULT4A1-1 status; assay type: in vivo, human; conditions: for ≦−20% (number of individuals with this percent change in total PANSS; responders) / ≧−20% (number of individuals with this percent change in total PANSS; non-responders): CATIE Caucasians, LOCF
Excerpt: There are several different metrics for quantifying response in clinical trials of antipsychotic medications. The most commonly used psychometric instrument is the Positive and Negative Syndrome Scale (PANSS), a 30-item semi-quantitative instrument scored by clinical professionals (Kay et al., 1987). The greater the decrease in PANSS score, the better the clinical response. The most direct measure of clinical response is absolute change in PANSS score. In addition to absolute change, the improvement is often reported as a percentage change from baseline PANSS score.
A decrease of at least 20% in total PANSS is one commonly used threshold for response (Leucht et al., 2009).
The design of the CATIE study has been described in detail by others (Lieberman et al., 2005; Stroup et al., 2003). […] A total of 738 subjects consented to provide DNA for genetic study. […] Retrospective genetic analyses, judged to be exempt from human studies requirements by an IRB, were conducted in the current study.
All tested patients were studied using well established clinical endpoints comparing baseline, intermediate, and last observation carried forward (LOCF) for the PANSS scores using CATIE data. LOCF analysis is a commonly used clinical endpoint for clinical trials for neuropsychiatric drugs, with changes in PANSS scores of between negative 20% and negative 30% used as typical endpoints to indicate clinically significant response (Leucht et al., 2009). To remove time on drug as a variable for the CATIE trial, analysis was limited to only those patients who were randomized to a different drug following the initial washout period (drug switchers).
As mentioned previously, the mean change in absolute or percent PANSS provides an important measure of efficacy in patients undergoing antipsychotic treatments. Indeed, many pivotal trials in the psychosis field used absolute and/or percentage change in PANSS Score as the primary endpoint (Leucht et al., 2009). […] Therefore, in addition to examining a categorical definition of clinically significant response, the inventors determined the impact of segmentation by SULT4A1-1 status on the quantitative measure of clinical improvement—delta PANSS.

[2] = tested on: CATIE Phase I non-responders; conditions: CATIE Phase II, LOCF; for Responders (number): decrease PANSS ≧ 20%
[3] = tested on: patients, populations not segmented by SULT4A1-1 status; conditions: meta-analysis, Leucht et al. (2009); negative = greater reduction in PANSS; cited from earlier work
[4] = tested on: patients, unsegmented populations; conditions: first generation antipsychotics; Davis et al. (2003); cited from earlier work
[5] = tested on: CATIE patients with schizophrenia of European ancestry; assay: CATIE Phase I percent change of PANSS from baseline (LOCF), linear model with haplotype and drug therapy; assay type: in vivo, human; conditions: Table 18
Excerpt: Genotype and phenotype data for the CATIE trial were recently made available to qualified researchers through The NIMH Center for Collaborative Genetic Studies on Mental Disorders. The inventors evaluated data for 417 CATIE patients with schizophrenia self reported as having exclusively European ancestry. This same patient population was described in a recent study by Sullivan and coworkers, which confirmed that there is no hidden stratification in the sample (Sullivan et al., 2008).
The CATIE clinical data set included baseline PANSS scores based on clinical assessments prior to initiation of the assigned therapy, but following the washout period for any patients previously on antipsychotic medication. Follow up PANSS data for the CATIE trial were collected at each visit as described in detail by others (Stroup et al., 2003). Briefly, the first visit was after one month of treatment, and subsequent visits were at somewhat irregular intervals of approximately three months for up to a total 18 months or until discontinuation of treatment, whichever came first.
For all subsequent analyses, the inventors focused on the single haplotype, designated SULT4A1-1. EM algorithm haplotypes were assigned to each patient using HelixTree software (Version 6.4.1; Golden Helix, Bozeman, Mont.), and each individual was scored as being positive or negative for the presence of the haplotype. The inventors assigned SULT4A1-1 haplotype status to those individuals for which EM algorithm assignment could be made with error probabilities of <1%. This included a total of 395 patients from the CATIE study. With the exception of four of the 395 patients in the CATIE study, SULT4A1-1 haplotype status could be assigned with error probabilities of <1×10-5.
Since follow-up on subjects was not done at uniform time intervals, analysis was done using the last observation for each patient in treatment Phase I of the trial as the measure of response (last observation carried forward, LOCF). Main effect and interaction terms between the SULT4A1-1 haplotype and drug therapy were included in the linear model. A pre-determined set of contrasts for differences in percent change PANSS by haplotype within each drug therapy (three comparisons) and by drug therapy within each haplotype (six comparisons) were evaluated, with adjustment for multiple-comparisons using the step-up false-discovery rate (FDR) controlling procedure (Benjamini and Hochberg, 1995). A sub-analysis omitting those patients who were randomized to the same antipsychotic drug therapy was also conducted. […]

CATIE Caucasian subjects = assay: Rate of hospitalization due to exacerbation of psychosis in CATIE by SULT4A1-1 status; assay type: in vivo, human; conditions: CATIE Phases 1, 2 and/or 3
Excerpt: For this analysis, the inventors assigned a dichotomous value (positive or negative) for hospitalization status to subjects in each phase of the trial based on only the first hospitalization event for a given patient in that phase.

CATIE patients = assay: Kaplan-Meier survival (no hospitalization event) analysis, SULT4A1-1 negative vs positive; assay type: in vivo, human; conditions: FIG. 8
Procedure: A Kaplan-Meier survival analysis was performed to determine whether there was a difference between the survival (hospitalization) rates for the SULT4A1-1 negative and SULT4A1-1 positive patient populations treated with each of the atypical antipsychotics. Survival plots model the fraction of the population that survived (i.e., no hospitalization event) as a function of time.

[6] = Table 16, 20% decrease in PANSS threshold, SULT4A1-1 positive group (sign not given)

OCCOCCN1CCN(C2=Nc3ccccc3Sc3ccccc32)CC1 [Quetiapine]
Mean Difference in Total PANSS Score, Olanzapine vs. labelled drug ([1]; CATIE SULT4A1-1 −): −3.8 | Mean Difference in Total PANSS Score, Olanzapine vs. labelled drug ([1]; CATIE unsegmented): −6.2 | ≦−20% (number of individuals with this percent change in total PANSS; responders) ([1]; SULT4A1-1 Negative): 13 | ≧−20% (number of individuals with this percent change in total PANSS; non-responders) ([1]; SULT4A1-1 Negative): 50 | ≦−20% (number of individuals with this percent change in total PANSS; responders) ([1]; SULT4A1-1 Positive): 7 | ≧−20% (number of individuals with this percent change in total PANSS; non-responders) ([1]; SULT4A1-1 Positive): 11 | Non Responder (number) [1, 6]: 11 | Responder (number) [1, 6]: 7 | Nonresponders (number) ([2]; SULT4A1-1 Negative): 10 | Responders (number) ([2]; SULT4A1-1 Negative): 1 | Nonresponders (number) ([2]; SULT4A1-1 Positive): 1 | Responders (number) ([2]; SULT4A1-1 Positive): 0 | Effect Size vs. Placebo [3]: −0.42 | Effect Size vs. FGA [4]: 0.01 | Difference in percent change in PANSS score ([5]; Complete Sample, SULT4A1-1+ patients, labelled drug vs Risperidone): −1.0% | Difference in percent change in PANSS score ([5]; Complete Sample, same drug, SULT4A1-1+ vs SULT4A1-1−): −5.4% | Difference in percent change in PANSS score ([5]; Patients Randomized to a Different Medication, SULT4A1-1+ patients, labelled drug vs Risperidone): −4.6% | Difference in percent change in PANSS score ([5]; Patients Randomized to a Different Medication, same drug, SULT4A1-1+ vs SULT4A1-1−): −6.8% | HOSP (number of subjects hospitalized) (CATIE Caucasian subjects; SULT4A1-1 Positive): 1 | HOSP (rate of hospitalization) (CATIE Caucasian subjects; SULT4A1-1 Positive): (2.9%) | HOSP (number of subjects hospitalized) (CATIE Caucasian subjects; SULT4A1-1 negative): 24 | HOSP (rate of hospitalization) (CATIE Caucasian subjects; SULT4A1-1 negative): (19.5%) | HOSP (number of subjects hospitalized) (CATIE Caucasian subjects; Unsegmented): 25 | Difference between survival (no hospitalization) rates of SULT4A1-1 negative and SULT4A1-1 positive patients (CATIE patients): significant difference
